Source: patent EP0056144A1, “Carboxylic acid derivatives, their preparation and use as pharmaceuticals” (Dr. Karl Thomae GmbH, priority 1981, dated 1982)

What was measured:
weiblichen Ratten = experiment: Blood-sugar-lowering effect in fasted female rats (glucose by hexokinase method); type: in vivo; set-up: key: n.s.: statistisch nicht signifikant; details: rats fasted 24 h
Excerpt: Die blutzuckersenkende Wirkung der zu untersuchenden Substanzen wurde an weiblichen Ratten eigener Zucht mit dem Gewicht von 180-220 g geprüft, welche 24 Stunden vor Versuchsbeginn nüchtern gesetzt wurden. Die zu untersuchenden Substanzen wurden unmittelbar vor Versuchsbeginn in 1,5%- iger Methylcellulose suspendiert und per Schlundsonde appliziert.
Die Blutentnahme erfolgte unmittelbar vor Substanzapplikation, sowie 1, 2, 3 und 4 Stunden danach jeweils aus dem retroorbitalen Venenplexus. Hiervon wurden jeweils 50 Fl mit 0,5 ml 0,33 N Perchlorsäure enteiweißt und zentrifugiert. Im überstand wurde Glukose nach der Hexokinase-Methode mit Hilfe eines Analysenphotometers bestimmt. Die statistische Auswertung erfolgte nach dem t-Test nach Student mit p = 0,05 als Signifikanzgrenze.
Die nachfolgende Tabelle enthält die gefundenen Werte in Prozent gegenüber Kontrolle: […]

[1] = tested on: weiblichen und männlichen Mäusen; experiment: Acute toxicity in mice after a single oral dose; type: in vivo; details: observation at least 7 days; for Tieren gestorben: single oral dose of 1 000 mg/kg; for orientierende Toxizität: single oral dose
Excerpt: Bei weiblichen und männlichen Mäusen eigener Zucht mit dem Gewicht von 20-26 g wurde die toxische Wirkung der Substanzen nach oraler Gabe (Suspension in 1%iger Methylcellulose) einer einmaligen Dosis bei einer Nachbeobachtungszeit von mindestens 7 Tagen geprüft. Die nachfolgende Tabelle enthält die gefundenen Werte: […]

[2] = 5 mg/kg by gavage, 1 hour after administration
[3] = 5 mg/kg by gavage, 2 hours after administration
[4] = 5 mg/kg by gavage, 3 hours after administration
[5] = 5 mg/kg by gavage, 4 hours after administration

Compound | Blutzuckersenkende Wirkung, Werte in Prozent gegenüber Kontrolle (weiblichen Ratten; [2]) [Prozent] | Blutzuckersenkende Wirkung, Werte in Prozent gegenüber Kontrolle (weiblichen Ratten; [3]) [Prozent] | Blutzuckersenkende Wirkung, Werte in Prozent gegenüber Kontrolle (weiblichen Ratten; [4]) [Prozent] | Blutzuckersenkende Wirkung, Werte in Prozent gegenüber Kontrolle (weiblichen Ratten; [5]) [Prozent] | Tieren gestorben [1] [von 10] | orientierende Toxizität [1] | Blutzuckersenkende Wirkung, Werte in Prozent gegenüber Kontrolle (weiblichen Ratten; 25 mg/kg by gavage, 1 hour after administration) | Blutzuckersenkende Wirkung, Werte in Prozent gegenüber Kontrolle (weiblichen Ratten; 25 mg/kg by gavage, 2 hours after administration) | Blutzuckersenkende Wirkung, Werte in Prozent gegenüber Kontrolle (weiblichen Ratten; 25 mg/kg by gavage, 3 hours after administration) | Blutzuckersenkende Wirkung, Werte in Prozent gegenüber Kontrolle (weiblichen Ratten; 25 mg/kg by gavage, 4 hours after administration)
O=C(O)c1ccc(CCNC(=O)c2cc(F)ccc2N2CCCCCCCC2)cc1 [Substanz B, 4-[2-[5-Fluor-2-(octahydro-1H-azonino)-benzoylamino]äthyl]-benzoesäure] | -31 | -36 | -34 | -34 | – | – | – | – | – | –
Cc1ccc(N2CCCCCCCC2)c(C(=O)NCCc2ccc(C(=O)O)cc2)c1 [Substanz D, 4-[2-[5-Methyl-2-(octahydro-1H-azonino)-benzoylamino]-äthyl]-benzoesäure] | -30 | -34 | -35 | -26 | – | – | – | – | – | –
CCC(CC)C1CCN(c2ccc(Cl)cc2C(=O)O)CC1 [Substanz F, 5-Chlor-2-[4-(3-pentyl)-piperidino]benzoesäure] | – | – | – | – | 0 | > 1 000 mg/kg | – | – | – | –
C[C@@H]1C[C@H](C)CN(c2ncc(Cl)cc2C(=O)NCCc2ccc(C(=O)O)cc2)C1 [Substanz C] | -37 | -39 | -40 | -38 | 0 | > 1 000 mg/kg | – | – | – | –
CCNc1ccc(Cl)cc1C(=O)NCCc1ccc(C(=O)O)cc1 [Substanz E, 4-[2-(2-Äthylamino-5-chlor-benzoylamino)-äthyl]benzoesäure, reference compound] | – | – | – | – | – | – | n.s. | n.s. | n.s. | n.s.
O=C(O)c1ccc(CCNC(=O)c2cc(Cl)ccc2N2CCC3CCCC2C3)cc1 (stereo not drawn) [Substanz A, 4-[2-[2-(2-Azabicyclo[3.3.1]nonan-2-yl)-5-chlor-benzoyl-amino]-äthyl]benzoesäure] | -42 | -43 | -36 | -32 | – | – | – | – | – | –
